pKi: −log10 of the molar value.
Assays:
[1] = molecular target: human GABAA α1β2γ1 receptor (Homo sapiens (Human), UniProt P14867+Q8N1C3); assay: Radioligand binding assay, competition for [3H]RO7239181, membranes from HEK293F cells
[2] = molecular target: h-GABA-A α2β2γ1 receptor (Homo sapiens (Human), UniProt P47869+Q8N1C3); assay: Two-electrode voltage clamp electrophysiology in Xenopus oocytes expressing GABAA receptors; type: cell-based; conditions: for Efficacy (GABA) %: % modulation of GABA EC20 = 100*(Fold increase−1), compound at 30-fold Ki α2β2γ1; for Fold increase h-GABA-A α2β2γ1 oocyte @ 30-fold Ki: Xenopus oocytes, GABA EC20, test compound at approx. 30-fold its Ki α2β2γ1
Method: Xenopus laevis oocytes at maturation stages V-VI were used for the expression of cloned mRNA encoding GABAA receptor subunits. Oocytes ready for RNA micro-injection were bought from Ecocyte, Castrop-Rauxel, Germany and stored in modified Barth's medium (composition in mM: NaCl 88, KCl 1, NaHCO3 2.4, HEPES 10, MgSO4 0.82, CaNO3 0.33, CaCl2 0.33, pH=7.5) at 20° C. until the experiment.
Oocytes were plated in 96-well plates for microinjection using the Roboinject automated instrument (MultiChannelSystems, Reutlingen, Germany). Approximately 50 nL of an aqueous solution containing the RNA transcripts for the subunits of the desired GABAA receptor subtype was injected into each oocyte. […] Oocytes were kept in modified Barth's medium (composition in mM: NaCl 88, KCl 1, NaHCO3 4, HEPES 10, MgSO4 0.82, CaNO3 0.33, CaCl, 0.33, pH=7.5) at 20° C. until the experiment.
Electrophysiological experiments were performed using the Roboocyte instrument (MultiChannelSystems, Reutlingen, Germany) on days 3 to 5 after the micro-injection of mRNA. During the experiment the oocytes were constantly superfused by a solution containing (in mM) NaCl 90, KCl 1, HEPES 5, MgCl2 1, CaCl2 1 (pH 7.4). Oocytes were impaled by two glass microelectrodes (resistance: 0.5-0.8 MΩ) which were filled with a solution containing KCl 1M+K-acetate 1.5 M and voltage-clamped to −80 mV. The recordings were performed at room temperature using the Roboocyte two-electrode voltage clamp system (Multichannelsystem). After an initial equilibration period of 1.5 min GABA was added for 1.5 min at a concentration evoking approximately 20% of a maximal current response (EC2O). After another rest interval of 2.5 min GABA was again added evoking a response of similar amplitude and shape. […] Current traces were recorded at a digitization rate of 10 Hz during and shortly before and after the GABA application.
Each compound and concentration was tested on at least 3 oocytes. Different oocytes were used for different compound concentrations.
For the analysis, the digitized current traces of the first and second GABA response were superimposed and, if necessary, rescaled to equal maximal amplitudes. The ratio between the two responses during the time interval of test compound application was calculated point by point. The extremum of the resulting “ratio trace” was taken as the efficacy (“Fold increase”) of the compound expressed as “% modulation of GABA EC20” (100*(Fold increase−1)).

Cc1nnc2n1-c1ccc(Cl)c(Cl)c1C(c1cc(O)ccc1F)=NC2 [Example 3, 3-(7,8-dichloro-1-methyl-4H-[1,2,4]triazolo[4,3-a][1,4]benzodiazepin-6-yl)-4-fluoro-phenol]
pKi [1]: 8.26 | Efficacy (GABA) % [2]: 67% | Fold increase h-GABA-A α2β2γ1 oocyte @ 30-fold Ki [2]: 1.67

O=c1ccn2c(n1)CN=C(c1cc(O)ccc1F)c1c-2ccc(C(F)(F)F)c1Cl [Example 11, 8-chloro-7-(2-fluoro-5-hydroxy-phenyl)-9-(trifluoromethyl)-5H-pyrimido[1,2-a][1,4]benzodiazepin-3-one]
pKi [1]: 8.29 | Efficacy (GABA) % [2]: 68% | Fold increase h-GABA-A α2β2γ1 oocyte @ 30-fold Ki [2]: 1.68

Cc1nnc2n1-c1ccc(C(F)(F)F)c(Cl)c1C(c1nc(O)ccc1Cl)=N[C@H]2C [Example 22, 5-chloro-6-[(4S)-7-chloro-1,4-dimethyl-8-(trifluoromethyl)-4H-[1,2,4]triazolo[4,3-a][1,4]benzodiazepin-6-yl]pyridin-2-ol]
pKi [1]: 7.37 | Efficacy (GABA) % [2]: 84% | Fold increase h-GABA-A α2β2γ1 oocyte @ 30-fold Ki [2]: 1.84

C[C@@H]1N=C(c2cc(O)ccc2F)c2c(ccc(Cl)c2Cl)-n2ccc(=O)nc21 [Example 5, (5S)-8,9-dichloro-7-(2-fluoro-5-hydroxy-phenyl)-5-methyl-5H-pyrimido[1,2-a][1,4]benzodiazepin-3-one]
pKi [1]: 8.48 | Efficacy (GABA) % [2]: 46% | Fold increase h-GABA-A α2β2γ1 oocyte @ 30-fold Ki [2]: 1.46

Cc1cnc2n1-c1ccc(C(F)(F)F)c(Cl)c1C(c1nc(O)ccc1Cl)=N[C@H]2C [Example 26, 5-chloro-6-[(4S)-7-chloro-1,4-dimethyl-8-(trifluoromethyl)-4H-imidazo[1,2-a][1,4]benzodiazepin-6-yl]pyridin-2-ol]
pKi [1]: 7.69 | Efficacy (GABA) % [2]: 79% | Fold increase h-GABA-A α2β2γ1 oocyte @ 30-fold Ki [2]: 1.79

— patent publication US12344614B2, “Benzodiazepine derivatives as GABA a GAMMA1 PAM” (Hoffmann-La Roche Inc., priority 2021, dated 2025)
